Where a name gives a salt, the structure may show the parent alone.

The test system of the test is IL-2 secretion by Jurkat T cells. The test can be described thus: Inhibition of IL-2 secretion (PHA-stimulated Jurkat T cells, ELISA). To be noted: Homo sapiens, 20 to 24 hours. Type of test: cell-based. As for the experimental part: The CRAC channel modulatory activity of the compounds were thus evaluated by measuring the secretion of IL-2 by antigen stimulated T-cells in vitro. Alternatively, such activity can also be evaluated by assay methods known to one skilled in the art.
Inhibition of IL-2 secretion: Jurkat T cells were seeded at a density of 0.5 to 1 million cells per well in RPMI medium. Test compounds from this invention were added to the cells at different concentrations. This was followed by the addition of PHA, a T cell mitogen after 10 minutes. The cells were then incubated for 20 to 24 hours in a CO2 incubator at 37° C. After incubation with the compounds, cells were centrifuged; the supernatant was collected and processed for ELISA to quantitate the amount of IL-2 secreted. A commercial ELISA kit (R&D Systems, Inc. Minneapolis, Minn., USA) was used to estimate the IL-2 concentrations. Amount of IL-2 secreted by cells stimulated with PHA was considered as a 100% maximal signal and the decrease in amount of IL-2 secreted by cells treated with the test compounds was expressed as percent inhibition of the maximal signal. The dose response data was analyzed using 4-parametric sigmoidal dose response (variable slope) curve-fit.
One may read the IC50 as the concentration at which inhibition is half-maximal. The low end stands for higher potency, the high end for lower potency. The compound `Cc1cc2c(cc1-c1ccc(NCc3c(F)cccc3F)cc1)OC(C)(C)CC2=O` [Example 33, 7-(4-((2,6-Difluorobenzyl)amino)phenyl)-2,2,6-trimethylchroman-4-one] registered a half-maximal inhibitory concentration (IC50) of less than 25 nM. As to `Cc1cc2c(cc1-c1ccc(NC(=O)c3c(F)cccc3F)cc1)C(=O)CC1(CCC1)O2` [Example 17, 2,6-Difluoro-N-(4-(7-methyl-4-oxospiro[chroman-2,1′-cyclobutan]-6-yl)phenyl)benzamide], the IC50 is 50 to 100 nM.

`CC1(CO)C=C(c2ccc(NC(=O)c3c(F)cccc3F)cc2)c2ccccc2O1` (centres unmarked) [Example 93, 2,6-Difluoro-N-(4-(2-(hydroxymethyl)-2-methyl-2H-chromen-4-yl)phenyl)benzamide] showed an IC50 of 50 to 100 nM. Take `COCC1(C)C=C(c2ccc(NC(=O)c3c(F)cccc3F)nc2)c2cccc(C)c2O1` (centres unmarked) [Example 104, 2,6-Difluoro-N-(5-(2-(methoxymethyl)-2,8-dimethyl-2H-chromen-4-yl)pyridin-2-yl)benzamide]: the IC50 was less than 25 nM.

Consider `Cc1cc2c(cc1-c1ccc(NC(=O)c3c(F)cccc3F)cc1)OC1(CNC1)CC2=O` [Example 120, 2,6-Difluoro-N-(4-(6′-methyl-4′-oxospiro[azetidine-3,2′-chroman]-7′-yl)phenyl)benzamide hydrochloride], for which the 50% inhibitory concentration (IC50) was in the range of 50 to 100 nM.

`Cc1cccc2c1OC1(C=C2c2cnc(NC(=O)c3c(F)cccc3F)cn2)CCC1` [Example 100, 2,6-Difluoro-N-(5-(8-methylspiro[chromene-2,1′-cyclobutan]-4-yl)pyrazin-2-yl)benzamide] yielded an IC50 of less than 25 nM. The same measure for `Cc1ccc2c(c1)C(c1cnc(NC(=O)c3c(F)cccc3F)cn1)=CC1(CCC1)O2` [Example 76, 2,6-Difluoro-N-(5-(6-methylspiro[chromene-2,1′-cyclobutan]-4-yl)pyrazin-2-yl)benzamide]: 50 to 100 nM; for `Cc1cc2c(cc1-c1ccc(NC(=O)c3c(F)cccc3F)cc1)OC(C)(C)CC2N(C)C` (centres unmarked) [Example 62, N-(4-(4-(Dimethylamino)-2,2,6-trimethylchroman-7-yl)phenyl)-2,6-difluorobenzamide]: 50 to 100 nM; for `Cc1ccc2c(c1)OC(C)(C)C=C2c1ccc(NC(=O)c2c(F)cccc2F)cc1` [Example 87, 2,6-Difluoro-N-(4-(2,2,7-trimethyl-2H-chromen-4-yl)phenyl)benzamide]: 50 to 100 nM. As for `Cc1cc2c(cc1-c1ccc(C(=O)Nc3c(F)cncc3F)cc1)OC(C)(C)CC2=O` [Example 43, N-(3,5-Difluoropyridin-4-yl)-4-(2,2,6-trimethyl-4-oxochroman-7-yl)benzamide], the figure is 100 to 500 nM; as for `Cc1ccc2c(c1)OC1(C=C2c2ccc(NC(=O)c3c(F)cccc3F)cc2)CCC1` [Example 77, 2,6-Difluoro-N-(4-(7-methylspiro[chromene-2,1′-cyclobutan]-4-yl)phenyl)benzamide], 50 to 100 nM; as for `CC1(C)C=C(c2ccc(NC(=O)c3c(F)cccc3F)cc2)c2ccccc2O1` [Example 79, N-(4-(2,2-Dimethyl-2H-chromen-4-yl)phenyl)-2,6-difluorobenzamide], 25 to 50 nM.

In turn, `Cc1cc2c(cc1-c1ccc(C(=O)Nc3c(F)cccc3F)cc1)OC1(CCC1)CC2=O` [Example 13, N-(2,6-Difluorophenyl)-4-(6-methyl-4-oxospiro[chroman-2,1′-cyclobutan]-7-yl)benzamide] displayed a concentration for half-maximal inhibition (IC50) of 25 to 50 nM. As for `COCC1(C)C=C(c2ccc(NC(=O)c3c(F)cccc3F)cc2)c2ccccc2O1` (centres unmarked) [Example 90], the figure is 25 to 50 nM; as for `Cc1ccc2c(c1)C(c1ccc(NC(=O)c3c(F)cccc3F)cc1)=CC1(CCC1)O2` [Example 75, 2,6-Difluoro-N-(4-(6-methylspiro[chromene-2,l′-cyclobutan]-4-yl)phenyl)benzamide], less than 25 nM.

`Cc1c(-c2ccc(NC(=O)c3c(F)cccc3F)cc2)ccc2c1OC(C)(C)CC2` [Example 59, 2,6-Difluoro-N-(4-(2,2,8-trimethylchroman-7-yl)phenyl)benzamide] registered a half-inhibitory concentration (IC50) of less than 25 nM. The same measure for `Cc1ccc2c(c1)OC1(C=C2c2ccc(NC(=O)c3c(F)cccc3F)nc2)CCC1` [Example 109, 2,6-Difluoro-N-(5-(7-methylspiro[chromene-2,1′-cyclobutan]-4-yl)pyridin-2-yl)benzamide]: 100 to 500 nM; for `Cc1cccc2c1OC(C)(C)C=C2c1cnc(NC(=O)c2c(F)cccc2F)cn1` [Example 89, 2,6-Difluoro-N-(5-(2,2,8-trimethyl-2H-chromen-4-yl)pyrazin-2-yl)benzamide]: less than 25 nM; for `Cc1cc2c(cc1-c1ccc(NC(=O)c3c(F)cccc3F)cc1)CCC1(CCC1)O2` [Example 18, 2,6-Difluoro-N-(4-(7-methylspiro[chroman-2,1′-cyclobutan]-6-yl)phenyl)benzamide]: 50 to 100 nM. As for `CCc1cc2c(cc1-c1cnc(NC(=O)c3c(F)cccc3F)cn1)OC(C)(C)CC2=O` [Example 5, N-(5-(6-Ethyl-2,2-dimethyl-4-oxochroman-7-yl)pyrazin-2-yl)-2,6-difluorobenzamide], the figure is less than 25 nM. The same measure for `Cc1cccc2c1OC1(C=C2c2ccc(NC(=O)c3c(F)cccc3F)nc2)CCC1` [Example 101, 2,6-Difluoro-N-(5-(8-methylspiro[chromene-2,1′-cyclobutan]-4-yl)pyridin-2-yl)benzamide]: less than 25 nM; for `Cc1cc2c(cc1-c1ccc(NC(=O)c3c(F)cccc3F)nc1)OC(C)(CO)CC2=O` (centres unmarked) [Example 54, 2,6-Difluoro-N-(5-(2-(hydroxymethyl)-2,6-dimethyl-4-oxochroman-7-yl)pyridin-2-yl)benzamide]: 50 to 100 nM. Turning to `Cc1cc2c(cc1-c1ccc(NC(=O)c3c(C)cccc3F)cc1)OC1(CCC1)CC2=O` [Example 10, 2-Fluoro-6-methyl-N-(4-(6-methyl-4-oxospiro[chroman-2,1′-cyclobutan]-7-yl)phenyl)benzamide], the half-inhibitory concentration (IC50) is 25 to 50 nM. The same measure for `COCC1(C)C=C(c2cnc(NC(=O)c3c(F)cccc3F)cn2)c2cccc(C)c2O1` (centres unmarked) [Example 103, 2,6-Difluoro-N-(5-(2-(methoxymethyl)-2,8-dimethyl-2H-chromen-4-yl)pyrazin-2-yl)benzamide]: less than 25 nM.

In turn, `Cc1cc2c(cc1-c1ccc(C(=O)Nc3c(F)cncc3F)cc1)OC1(CCC1)CC2=O` [Example 64, N-(3,5-Difluoropyridin-4-yl)-4-(6-methyl-4-oxospiro[chroman-2,1′-cyclobutan]-7-yl)benzamide] yielded an IC50 of less than 25 nM.

Turning to `Cc1cc2c(cc1-c1ccc(C(=O)Nc3c(Cl)cncc3Cl)cc1)OC1(CCC1)CC2` [Example 67, N-(3,5-Dichloropyridin-4-yl)-4-(6-methylspiro[chroman-2,1′-cyclobutan]-7-yl)benzamide], the IC50 was 25 to 50 nM. The same measure for `Cc1cc2c(cc1-c1ccc(NCc3c(F)cccc3F)cc1)OC1(CCC1)CC2=O` [Example 21, 7-(4-((2,6-Difluorobenzyl)amino)phenyl)-6-methylspiro[chroman-2,1′-cyclobutan]-4-one]: 25 to 50 nM; for `Cc1cc2c(cc1-c1ccc(NC(=O)c3c(F)cccc3F)cc1)OC(C)(CO)CC2=O` (centres unmarked) [Example 51, 2,6-Difluoro-N-(4-(2-(hydroxymethyl)-2,6-dimethyl-4-oxochroman-7-yl)phenyl)benzamide]: less than 25 nM; for `Cc1cc2c(cc1-c1ccc(C(=O)Nc3c(F)cccc3F)cc1)OC1(CCC1)CC2` [Example 116, N-(2,6-Difluorophenyl)-4-(6-methylspiro[chroman-2,1′-cyclobutan]-7-yl)benzamide]: 25 to 50 nM. The same measure for `COC(=O)C1(C)CC(=O)c2cc(C)c(-c3cnc(NC(=O)c4c(F)cccc4F)cn3)cc2O1` (centres unmarked) [Example 45, Methyl 7-(5-(2,6-difluorobenzamido)pyrazin-2-yl)-2,6-dimethyl-4-oxochroman-2-carboxylate]: 100 to 500 nM; for `Cc1cc2c(cc1-c1ccc(NC(=O)c3c(F)cccc3F)cn1)OC(C)(C)CC2=O` [Example 27, 2,6-Difluoro-N-(6-(2,2,6-trimethyl-4-oxochroman-7-yl)pyridin-3-yl)benzamide]: 25 to 50 nM; for `CCc1cc2c(cc1-c1ccc(NC(=O)c3c(F)cccc3F)cc1)OC(C)(C)CC2=O` [Example 2, N-(4-(6-Ethyl-2,2-dimethyl-4-oxochroman-7-yl)phenyl)-2,6-difluorobenzamide]: less than 25 nM. Regarding `CCc1cc2c(cc1-c1cnc(NC(=O)c3c(F)cccc3F)cn1)OC1(CCC1)CC2=O` [Example 41, N-(5-(6-Ethyl-4-oxospiro[chroman-2,1′-cyclobutan]-7-yl)pyrazin-2-yl)-2,6-difluorobenzamide], the IC50 lay within 50 to 100 nM. Consider `Cc1ccc2c(c1)C(c1ccc(NC(=O)c3c(F)cccc3F)cc1)=CC(C)(CO)O2` (centres unmarked) [Example 95, 2,6-Difluoro-N-(4-(2-(hydroxymethyl)-2,6-dimethyl-2H-chromen-4-yl)phenyl)benzamide], for which the IC50 is 50 to 100 nM.

The compound `CCc1cc2c(cc1-c1ccc(NC(=O)c3c(F)cccc3F)cc1)OC1(CCC1)CC2=O` [Example 20, N-(4-(6-Ethyl-4-oxospiro[chroman-2,1′-cyclobutan]-7-yl)phenyl)-2,6-difluorobenzamide] registered an IC50 of less than 25 nM.

The record behind these values is US9790231B2 (LUPIN LIMITED, priority 2013, dated 2017).
